The text below walks through data of ChEMBL document CHEMBL1149740, “New phenolic glucosides from the leaves of Eurya tigang” (J Nat Prod, 1992).

One assay has as its system T-24. The assay is described as follows: Antitumor activity against human T24 cells. The format is functional, cell-based.
The nature of assay [1]: Antitumor activity against mouse keratinocytes. The format is cell-based. Particulars: Keratinocyte.

As usually defined, the IC50 is the concentration at which inhibition is half-maximal.

In brackets after ≈: the same amount, converted by molar mass.

For the compound `O=C(/C=C/c1ccc(O)cc1)OC[C@H]1O[C@@H](OCCc2ccc(O)cc2)[C@H](O)[C@@H](O)[C@@H]1O` [EUTIGOSIDE A], the values for the IC50 (in the assay with T-24; in assay [1]) were 28.7 µg/mL (≈ 64.3 µM) and 9.2 µg/mL (≈ 20.6 µM), respectively.
The matching figures for `O=C1C=CC(O)(CCO[C@@H]2O[C@H](COC(=O)/C=C/c3ccccc3)[C@@H](O)[C@H](O)[C@H]2O)C=C1` [EUTIGOSIDE C]: 29.3 µg/mL (≈ 65.6 µM) and 12.6 µg/mL (≈ 28.2 µM).
The matching figures for `O=C1C=CC(O)(CCO[C@@H]2O[C@H](COC(=O)/C=C/c3ccc(O)cc3)[C@@H](O)[C@H](O)[C@H]2O)C=C1` [EUTIGOSIDE B]: 31.9 µg/mL (≈ 69 µM) and 9.4 µg/mL (≈ 20.3 µM).
